Reference: PMC9246256, “Structure-based optimization of type III indoleamine 2,3-dioxygenase 1 (IDO1) inhibitors” (Journal of Enzyme Inhibition and Medicinal Chemistry, 2022)
Read-outs that look alike come from different tables or passages of the source.

Molecular target: T1, purified recombinant IDO1 (Homo sapiens, UniProt P14902)
T1 construct: Full-length human IDO1 gene was cloned into the pET-28a vector; inferred from pET-28a vector and HisTrap purification; made in house; host or cells: E. coli Rosetta (DE3)
T1 sequence (P14902 whole entry): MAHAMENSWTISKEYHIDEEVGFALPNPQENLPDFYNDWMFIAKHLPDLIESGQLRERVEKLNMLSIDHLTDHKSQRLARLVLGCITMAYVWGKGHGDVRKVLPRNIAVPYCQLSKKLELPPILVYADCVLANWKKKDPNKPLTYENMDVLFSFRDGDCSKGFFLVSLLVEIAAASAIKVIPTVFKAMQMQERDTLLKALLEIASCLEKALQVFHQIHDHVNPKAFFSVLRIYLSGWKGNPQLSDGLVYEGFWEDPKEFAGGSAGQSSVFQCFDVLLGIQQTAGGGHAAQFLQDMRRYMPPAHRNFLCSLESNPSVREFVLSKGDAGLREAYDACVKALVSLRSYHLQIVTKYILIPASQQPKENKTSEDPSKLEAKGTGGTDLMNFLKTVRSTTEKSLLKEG
Assay: Enzymatic IDO1 inhibition assay (ascorbate/methylene blue reduction system, HPLC detection of kynurenine)
Assay type: biochemical
Details: for IC50: enzymatic, L-Trp 100 µM, 0.01% Triton X-100, 5% DMSO, 20 min at room temperature, pH 6.5, duplicates; for LE [kcal/mol/HA]: ligand efficiency, LE = -RT log(IC50)/number of heavy atoms, from enzymatic IC50

Row | Compound | IC50 (read-out: IC50 [ μ M] (SD)) [µM] | LE [kcal/mol/HA] | IC50 (IC50 [ μ M] (SD)) [µM]
1 | c1cc(-c2nc[nH]n2)ccn1 [Compound 158, 4-(1H-1,2,4-Triazol-3-yl)pyridine] | > 1000 |  | 
2 | N#Cc1[nH]nnc1-c1ccccc1 [Compound 62, 4-Phenyl-1H-1,2,3-triazole-5-carbonitrile] | 630 | 0.34 | 
3 | NC(=O)c1[nH]nnc1-c1cc(Cl)ccc1O [Compound 67] | > 1000 |  | 
4 | Fc1cccc(-c2nc[nH]n2)c1 [Compound 137, 3–(3-Fluorophenyl)-1H-1,2,4-triazole] | 160 | 0.43 | 
5 | O=C(Nc1c(Cl)cccc1-c1nc[nH]n1)c1ccccc1 [Compound 154, N-(2-Chloro-6-(1H-1,2,4-triazol-3-yl)phenyl)benzamide] | > 1000 |  | 
6 | NC(=O)CSc1nnc2sc3ccccc3n12 [Compound 168, 2-((1,9a-Dihydrobenzo[4,5]thiazolo[2,3-c][1,2,4]triazol-3-yl)thio)acetamide] | > 1000 |  | 
7 | O=C(Nc1ccccc1-c1nc[nH]n1)c1ccccc1 [Compound 152, N-(2-(1H-1,2,4-triazol-3-yl)phenyl)benzamide] | > 100 |  | 
8 | CCCCc1cccc(-c2c[nH]nn2)c1 [Compound 24, 4–(3-Butylphenyl)-1,2,3-triazole] | 34 | 0.41 | 
9 | c1ccc2c(c1)ccc1nn[nH]c12 [Compound 88] | > 100 |  | 
10 | c1ccc(-n2cncn2)cc1 [Compound 170, 1-phenyl-1,2,4-triazole] | 870 | 0.38 | 
11 | O=C(c1ccc(Br)cc1)c1[nH]nnc1CBr [Compound 124, (4-(Bromomethyl)-1H-1,2,3-triazol-5-yl)(4-bromophenyl)methanone] | > 1000 |  | 
12 | CCc1cccc(-c2cnn[nH]2)c1 [Compound 22] |  | 0.51 | 
13 | OC(c1ccccc1)c1c[nH]nn1 (centres unmarked) [Compound 85, Phenyl(1,2,3-triazol-4-yl)methanol] | > 1000 |  | 
14 | Nc1ccsc1-c1nc[nH]n1 [Compound 161, 2-(1H-1,2,4-Triazol-3-yl)thiophen-3-amine] | 10 | 0.57 | 
15 | O=C(Nc1ccccc1)c1cn[nH]n1 [Compound 86, N-Phenyl-1H-1,2,3-triazole-4-carboxamide] | > 1000 |  | 
16 | Clc1cccc(Cl)c1-c1c[nH]nn1 [Compound 51, 4–(2,6-Dichlorophenyl)-1,2,3-triazole] | 280 | 0.37 | 
17 | CON=C(c1ccccc1)c1c[nH]nn1 [Compound 87, Phenyl(1H-1,2,3-triazol-4-yl)methanone O-methyl oxime] | > 1000 |  | 
18 | c1ccc(Nc2cnn[nH]2)cc1 [Compound 79] | > 100 |  | 
19 | O=C(c1ccc(O)cc1)c1cnn[nH]1 [Compound 108, (4-Hydroxyphenyl)(1H-1,2,3-triazol-5-yl)methanone] | > 1000 |  | 
20 | O=C(c1cccc(Cl)c1)c1cnn[nH]1 [Compound 101, (3-Chlorophenyl)(1H-1,2,3-triazol-5-yl)methanone] | 450 | 0.33 | 
21 | COc1ccccc1C(=O)c1cnn[nH]1 [Compound 103, (2-Methoxyphenyl)(1H-1,2,3-triazol-5-yl)methanone] | > 1000 |  | 
22 | Nc1ccc(Br)cc1-c1nnc[nH]1 [Compound 12] |  | 0.80 | 
23 | c1ccc(-c2nnc[nH]2)nc1 [Compound 159, 2-(1H-1,2,4-Triazol-3-yl)pyridine] |  |  | > 1000
24 | Clc1ccc(Cl)c(-c2cnn[nH]2)c1 [Compound 46] |  | 0.54 | 
25 | COc1cccc(OC)c1-c1c[nH]nn1 [Compound 45, 4–(2,6-Dimethoxyphenyl)-1,2,3-triazole] | > 1000 |  | 
26 | Brc1ccc(Nc2nnc[nH]2)cc1 [Compound 166, N-(4-Bromophenyl)-4H-1,2,4-triazol-3-amine] | > 1000 |  | 
27 | c1ccc(Nc2[nH]nnc2-c2ccccc2)cc1 [Compound 80] | > 250 |  | 
28 | Oc1ccc(-c2c[nH]nn2)cc1 [Compound 20, 4–(1,2,3-Triazol-4-yl)phenol] | > 1000 |  | 
